Source: PMC6315989, “Red-Shifted FRET Biosensors for High-Throughput Fluorescence Lifetime Screening” (Biosensors, 2018)
Where “and” joins values, the source holds several entries; their conditions need not be identical. Identical values can stand only once.

How the values were obtained:
[1] = biological target: T1, human cardiac calcium pump (SERCA2a) (Homo sapiens, UniProt P16615); assay: 2CS (O/M, OFP/MFP) red-shifted FRET fluorescence lifetime biosensor in living HEK293 cells; type: cell-based
Description: (§1) HEK293 (originally derived from human embryonic kidney) cells were maintained in phenol red-free DMEM from Gibco (Waltham, MA, USA) supplemented with 2 mM GlutaMAX (Gibco), 10% fetal bovine serum (FBS), from Atlanta Biologicals (Lawrenceville, GA, USA), and 1 IU/mL penicillin/streptomycin (Gibco) and grown at 37 °C with 5% CO2. HEK293 cell lines were used to generate stable clones overexpressing the FRET-based biosensors (containing both donor and acceptor) and corresponding donor-only and acceptor-only control cell lines. Three days prior to screening, the stable cell lines were expanded into T225 flasks from Corning Inc. (Corning, NY, USA). On each day of screening and FRET hit retesting, approximately 30 million cells were harvested by treatment of Tryple from Invitrogen (Carlsbad, CA, USA), washed three times in phosphate buffer solution (PBS) with no magnesium or calcium from Thermo Scientific (Waltham, MA, USA) by centrifugation at 300 g, filtered using 70 µm cell strainers (Corning), and diluted to 10^6 cells/mL using an automated countess cell counter (Invitrogen). On each day of screening, cell viability was assessed using the trypan blue assay and found to be above 95% viable. After resuspension and dilution in PBS, the cells were continuously and gently stirred using a magnetic stir bar at room temperature, keeping the cells in suspension and evenly distributed to avoid clumping. Subcellular localization of each biosensor was evaluated using an Olympus FluoView FV1000 IX2 (Tokyo, Japan) Inverted Confocal microscope with FLIM detector. GFP and RFP signals were assessed using 473 and 561 nm laser excitation, respectively. Cell nuclei were identified by staining with DAPI, using 405 nm laser excitation.
(§2) Cells and compound mixtures were dispensed into 1536-well flat, black-bottom polypropylene plates from Greiner (Kremsmünste, Austria). Compounds were dispensed using either an automated Echo acoustic liquid dispenser from Labcyte (Sunnyvale, CA, USA) or a Mosquito liquid dispenser from TTP Labtech (Melbourn, UK). Cells were dispensed at room temperature using a Multidrop Combi liquid dispenser from Thermo (Pittsburg, PA, USA), at a density of 10^6 cells/mL, either 30 or 120 min before screening. For screening, cells were dispensed into assay plates containing the 1280-compund LOPAC (Library of Pharmacologically Active Compounds, from Invitrogen), dissolved in DMSO. The final DMSO concentration was <1%, and control wells were prepared containing cells and matching [DMSO]. The same methods were applied for subsequent FRET testing of the reproducible hits identified in the pilot screen. Reproducible FRET hits for retesting were purchased from Tocris (Minneapolis, MN, USA) or Invitrogen (Carlsbad, CA, USA), depending on their availability.
(§3) An in-depth description of the fluorescence instrumentation has previously been described in detail and can be found in our previous publication. The current instrument has been updated to a high-density microplate format (1536 wells, 5 μL/well), acquiring data from a full plate in less than three minutes with lifetime measurement precision (standard deviation/mean) of 1% or better. Fluorescence decay waveforms (with upper-end specifications of […] resolution, 640 data points over 128 ns range) for FLT determination were detected directly as previously described, except that two different light sources were used for GFP and OFP. In both cases, fluorescence was excited with a pulsed microchip laser producing nanosecond-wide pulses. As previously described for GFP, a 473 nm laser (Bright Solutions, Via degli Artigiani, Italy) was used, delivering pulses of ~1 μJ energy at a 5 kHz repetition rate. For OFP, a 532 nm laser (Teem Photonics SNG-20F-100, Meylan, France) was used, delivering pulses of ~0.3 μJ energy at a 20 kHz repetition rate. […]

SERCA1a = biological target: T2, SERCA1a (Oryctolagus cuniculus, UniProt P04191); assay: Enzyme-coupled NADH-linked SERCA ATPase activity assay, skeletal SR vesicles; type: biochemical, rabbit
T2 construct: sarcoplasmic reticulum vesicles prepared from rabbit skeletal muscle (SERCA1a); from tissue; host or cells: rabbit skeletal muscle sarcoplasmic reticulum vesicles
Description: (§4) Functional assays were performed using sarcoplasmic reticulum vesicles prepared from rabbit skeletal muscle (SERCA1a) and pig cardiac muscle (SERCA2a). An enzyme-coupled, NADH-linked ATPase assay was used to measure SERCA ATPase activity in 96-well microplates. Each well contained 50 mM MOPS (pH 7.0), 100 mM KCl, 5 mM MgCl2, 1 mM EGTA, 0.2 mM NADH, 1 mM phosphoenol pyruvate, 10 IU/mL of pyruvate kinase, 10 IU/mL of lactate dehydrogenase, 1 µM of the calcium ionophore A23187 from Sigma (St. Louis, MO, USA), and CaCl2 added to set free [Ca^2+] to 10 μM [23]; 4 μg/mL of SR vesicle, calcium, compound, and assay mix were incubated for 20 min. The assay was started upon the addition of ATP, at a final concentration of 5 mM (total volume to 200 μL), and the rate of decrease in NADH absorbance at 340 nm was determined using a SpectraMax Plus microplate spectrophotometer (Molecular Devices, Sunnyvale, CA, USA).

SERCA2a = biological target: T3, SERCA2a (Sus scrofa, UniProt P11607); assay: Enzyme-coupled NADH-linked SERCA ATPase activity assay, cardiac SR vesicles; type: biochemical, pig
T3 construct: rabbit skeletal muscle (SERCA1a) and pig cardiac muscle (SERCA2a); from tissue; host or cells: pig cardiac muscle sarcoplasmic reticulum vesicles
Description: as §4

[2] = system: donor-only controls and donor-acceptor "null" linker constructs; assay: Control biosensors (donor-only 1CS and donor-acceptor null linker) lifetime CRC in HEK293 cells; type: cell-based, human; conditions: G/R and O/M control cell lines
Description: HEK293 (originally derived from human embryonic kidney) cells were maintained in phenol red-free DMEM from Gibco (Waltham, MA, USA) supplemented with 2 mM GlutaMAX (Gibco), 10% fetal bovine serum (FBS), from Atlanta Biologicals (Lawrenceville, GA, USA), and 1 IU/mL penicillin/streptomycin (Gibco) and grown at 37 °C with 5% CO2. HEK293 cell lines were used to generate stable clones overexpressing the FRET-based biosensors (containing both donor and acceptor) and corresponding donor-only and acceptor-only control cell lines. Three days prior to screening, the stable cell lines were expanded into T225 flasks from Corning Inc. (Corning, NY, USA). […] On each day of screening, cell viability was assessed using the trypan blue assay and found to be above 95% viable. […] Subcellular localization of each biosensor was evaluated using an Olympus FluoView FV1000 IX2 (Tokyo, Japan) Inverted Confocal microscope with FLIM detector. GFP and RFP signals were assessed using 473 and 561 nm laser excitation, respectively. […]
An in-depth description of the fluorescence instrumentation has previously been described in detail and can be found in our previous publication. […] Fluorescence decay waveforms (with upper-end specifications of […] resolution, 640 data points over 128 ns range) for FLT determination were detected directly as previously described, except that two different light sources were used for GFP and OFP. In both cases, fluorescence was excited with a pulsed microchip laser producing nanosecond-wide pulses. […] These filters were selected to exclude acceptor fluorescence, as only the lifetime of the donor fluorescent protein is required to calculate FRET (Equation (1)). […] The observed time-resolved fluorescence waveform was analyzed as described previously, assuming a single-exponential decay, to determine the fluorescence lifetimes (FLT) for control samples containing donor only (τD) and FRET biosensor samples containing donor plus acceptor (τDA). FRET efficiency was calculated from (1) FRET=1−(τDA/τD) […]

[3] = biological target: T1, human cardiac calcium pump (SERCA2a); assay: 2CS (G/R, GFP/RFP) FRET fluorescence lifetime biosensor in living HEK293 cells; type: cell-based; parameters: expressed in transfected cells
Description: as §1, §2, §3

[4] = known SERCA inhibitors, concentration-response curve, live HEK293 cells, 532 nm excitation, read-out: EC50 of lifetime change, h2CS2a (O/M)
[5] = known SERCA inhibitors, concentration-response curve, live HEK293 cells, 473 nm excitation, read-out: EC50 of lifetime change, h2CS2a (G/R)
[6] = LOPAC hits, 16-point CRC, Hill fit, apparent EC50 for FPL 64176 (no saturation), read-out: EC50 of lifetime change, 2CS (OFP/MFP)
[7] = LOPAC hits, 16-point CRC, Hill fit, apparent EC50 for FPL 64176 (no saturation), read-out: EC50 of lifetime change, 2CS (GFP/RFP)
[8] = mean ± SD, concentration-response curve

T3 sequence (P11607 1-997 isoform P11607-2): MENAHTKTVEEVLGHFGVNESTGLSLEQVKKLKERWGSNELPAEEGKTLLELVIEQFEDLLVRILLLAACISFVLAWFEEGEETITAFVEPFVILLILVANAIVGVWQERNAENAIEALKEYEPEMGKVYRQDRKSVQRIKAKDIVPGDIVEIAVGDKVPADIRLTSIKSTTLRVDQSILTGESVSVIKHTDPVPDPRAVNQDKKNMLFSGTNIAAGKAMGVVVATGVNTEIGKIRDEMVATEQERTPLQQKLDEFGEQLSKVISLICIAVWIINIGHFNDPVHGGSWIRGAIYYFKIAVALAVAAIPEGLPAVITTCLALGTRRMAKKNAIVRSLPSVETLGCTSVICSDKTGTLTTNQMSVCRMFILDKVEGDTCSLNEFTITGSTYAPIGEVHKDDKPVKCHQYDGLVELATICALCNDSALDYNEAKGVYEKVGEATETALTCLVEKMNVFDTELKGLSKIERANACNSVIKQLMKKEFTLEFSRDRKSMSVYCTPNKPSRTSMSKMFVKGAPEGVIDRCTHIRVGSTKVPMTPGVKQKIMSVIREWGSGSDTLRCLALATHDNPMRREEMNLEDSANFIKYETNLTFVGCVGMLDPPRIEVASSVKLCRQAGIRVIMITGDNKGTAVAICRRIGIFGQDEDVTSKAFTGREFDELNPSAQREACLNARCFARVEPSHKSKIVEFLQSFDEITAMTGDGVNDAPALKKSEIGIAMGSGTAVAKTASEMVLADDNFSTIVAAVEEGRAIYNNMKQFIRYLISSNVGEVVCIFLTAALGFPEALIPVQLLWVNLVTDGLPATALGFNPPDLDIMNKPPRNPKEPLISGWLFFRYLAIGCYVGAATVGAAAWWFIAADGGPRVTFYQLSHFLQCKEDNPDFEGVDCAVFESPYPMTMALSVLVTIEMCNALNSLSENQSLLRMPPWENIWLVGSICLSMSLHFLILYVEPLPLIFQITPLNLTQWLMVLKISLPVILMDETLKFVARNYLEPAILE
T2 sequence (P04191 1-994 isoform P04191-2): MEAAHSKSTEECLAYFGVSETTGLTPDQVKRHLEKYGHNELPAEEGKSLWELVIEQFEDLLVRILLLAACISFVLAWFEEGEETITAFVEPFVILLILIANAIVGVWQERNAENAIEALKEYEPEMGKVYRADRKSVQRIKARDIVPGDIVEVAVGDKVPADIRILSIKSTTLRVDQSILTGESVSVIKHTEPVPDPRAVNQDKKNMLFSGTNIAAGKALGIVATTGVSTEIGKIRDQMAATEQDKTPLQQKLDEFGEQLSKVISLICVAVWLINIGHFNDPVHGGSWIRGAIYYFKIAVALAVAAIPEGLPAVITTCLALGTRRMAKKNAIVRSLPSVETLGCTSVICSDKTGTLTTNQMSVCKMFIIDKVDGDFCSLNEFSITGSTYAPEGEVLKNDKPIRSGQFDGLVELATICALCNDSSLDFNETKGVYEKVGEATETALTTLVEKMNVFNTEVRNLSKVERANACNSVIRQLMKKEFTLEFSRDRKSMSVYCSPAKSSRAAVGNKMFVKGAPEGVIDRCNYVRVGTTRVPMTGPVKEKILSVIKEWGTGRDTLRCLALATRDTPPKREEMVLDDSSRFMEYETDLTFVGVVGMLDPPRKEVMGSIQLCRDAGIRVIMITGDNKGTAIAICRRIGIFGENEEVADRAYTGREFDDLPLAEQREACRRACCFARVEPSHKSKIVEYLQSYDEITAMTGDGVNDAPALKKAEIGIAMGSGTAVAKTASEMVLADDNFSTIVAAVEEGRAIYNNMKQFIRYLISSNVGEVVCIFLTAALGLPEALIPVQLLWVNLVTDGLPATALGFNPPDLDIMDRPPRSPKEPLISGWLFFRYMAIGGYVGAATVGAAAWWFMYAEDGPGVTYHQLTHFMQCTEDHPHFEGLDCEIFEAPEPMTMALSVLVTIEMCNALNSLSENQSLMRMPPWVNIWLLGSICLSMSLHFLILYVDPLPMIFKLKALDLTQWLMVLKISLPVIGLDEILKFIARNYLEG
T1 sequence (P16615 1-997 isoform P16615-2): as the sequence (P11607 1-997 isoform P11607-2) above, with K371R, K403N, P538S, M570L, N576H, E667D, S713A, T865S, V889I, L963V counted along it

Structure (SMILES): Oc1ccc2ccccc2c1SSc1c(O)ccc2ccccc12 [IPA3]
- concentration at which FRET abruptly and significantly decreased, 2CS (O/M) ([1]; non-sigmoidal CRC): approximately 10 μM
- IC50 (SERCA1a; CRC, free Ca2+ 10 μM, read-out: apparent EC50 (IC50) of ATPase inhibition, SERCA1a): 9.5 µM
- IC50 (SERCA2a; CRC, free Ca2+ 10 μM, read-out: apparent EC50 (IC50) of ATPase inhibition, SERCA2a): 8 µM
- effect on FRET/lifetime of donor-only and null-linker controls [2]: significant concentration-dependent changes in fluorescence lifetime
- concentration at which FRET abruptly and significantly decreased, 2CS (G/R) ([3]; non-sigmoidal CRC): approximately 10 μM

Structure (SMILES): CC(=O)C1=C(O)[C@@H]2[C@H]3c4c[nH]c5cccc(c45)C[C@H]3C(C)(C)N2C1=O [CPA, cyclopiazonic acid]
- EC50 [1, 4]: 0.626 µM
- EC50 [3, 5]: 0.715 µM

Structure (SMILES): COC(=O)c1c(C)[nH]c(C)c1C(=O)c1ccccc1Cc1ccccc1 [FPL 64176]
- FRET (lifetime) response in CRC, 2CS (O/M) ([1]; 16-point CRC): did not saturate at the highest concentrations
- EC50 [1, 6]: 21.1 µM and 21 µM
- effect on Ca-dependent ATPase activity, SERCA1a (SERCA1a; CRC, free Ca2+ 10 μM): biphasic ATPase activation
- effect on Ca-dependent ATPase activity, SERCA2a (SERCA2a; CRC, free Ca2+ 10 μM): biphasic ATPase activation
- ATPase activation of SERCA2a in comparison to SERCA1a (EC50 and % change) (SERCA2a; cardiac versus skeletal isoform): significantly more effective
- effect on FRET/lifetime of donor-only and null-linker controls [2]: no significant effect on FRET
- FRET (lifetime) response in CRC, 2CS (G/R) ([3]; 16-point CRC): did not saturate at the highest concentrations
- EC50 [3, 7]: 26.5 µM and 26 µM

Structure (SMILES): c1ccc(C(NCc2cccnc2)(c2ccccc2)c2ccccc2)cc1 [UCL 2077, 3-(triphenylmethylaminomethyl)pyridine]
- EC50 [1, 6]: 7.2 µM
- effect on Ca-dependent ATPase activity, SERCA1a (SERCA1a; CRC, free Ca2+ 10 μM): biphasic
- compound concentration at which ATPase activity peaked, SERCA1a (SERCA1a; biphasic CRC): around 3 micromolar
- effect on Ca-dependent ATPase activity, SERCA2a (SERCA2a; CRC, free Ca2+ 10 μM): biphasic
- compound concentration at which ATPase activity peaked, SERCA2a (SERCA2a; biphasic CRC): around 3 micromolar
- effect on FRET/lifetime of donor-only and null-linker controls [2]: no significant effect on FRET
- EC50 [3, 7]: 13.8 µM

Structure (SMILES): C/C=C(/C)C(=O)O[C@H]1C(C)=C2[C@H]([C@@H]1OC(=O)CCCCCCC)[C@@](C)(OC(C)=O)C[C@H](OC(=O)CCC)[C@@]1(O)[C@H]2OC(=O)[C@@]1(C)O [thapsigargin]
- EC50 [1, 4]: 0.0022 ± 0.0013 µM
- lifetime change Δτ at saturating compound, h2CS2a (O/M) [1, 8]: 258 ± 12 ps
- EC50 [3, 5]: 0.0044 ± 0.0012 µM
- lifetime change Δτ at saturating compound, h2CS2a (G/R) [3, 8]: 136 ± 10 ps
